Organism: Rattus norvegicus
Experiment: Open TG-GATES - Regimen: Single
Type: toxicity, organism-based, Sprague-Dawley
Parameters: regimen Single, gender Male, age 6 weeks
Conditions: in vivo, po, route gavage; for gamma-GTP / ALP / ALT / AST / BUN / CRE / Ca / Cl / DBIL / GLC / IP / K / LDH / Na / PL / RALB / TBIL / TG / TP: tissue Plasma; for APTT / Bas / Eos / Fbg / Hb / Ht / Lym / MCH / MCV / Mono / Neu / PT / Plat / RBC / Ret / WBC: tissue Blood; for KIDNEY_L / KIDNEY_R / KIDNEY_TOTAL: tissue Kidney; for LIVER: tissue Liver
[1] = 100 mg/kg, 3 h, dose level Middle
[2] = 100 mg/kg, 6 h, dose level Middle
[3] = 100 mg/kg, 9 h, dose level Middle
[4] = 100 mg/kg, 24 h, dose level Middle
[5] = 300 mg/kg, 3 h, dose level High
[6] = 300 mg/kg, 6 h, dose level High
[7] = 300 mg/kg, 9 h, dose level High
[8] = 300 mg/kg, 24 h, dose level High

## NC(=O)N1c2ccccc2C=Cc2ccccc21 [CARBAMAZEPINE]
30 mg/kg, 24 h, dose level Low
  gamma-GTP: 0.8 IU/L
[1]
  TERMINAL_BW: 216.3 g
  APTT: 19.3 s
  Bas: 0%
  Eos: 1.2%
  Fbg: 209.4 mg/dL
  Hb: 13.2 g/dL
  Ht: 38.8%
  Lym: 77.4%
  MCH: 21.3 pg
  MCV: 62.7 fL
  Mono: 2.8%
  Neu: 17.2%
  PT: 12.4 s
  Plat: 121.8 x10_4/uL
  RBC: 619 x10_4/ul
  Ret: 7.2%
  WBC: 96 x10_2/uL
  KIDNEY_L: 0.9 g
  KIDNEY_R: 0.9 g
  KIDNEY_TOTAL: 1.9 g
  LIVER: 9.8 g
  ALP: 792.4 IU/L
  ALT: 35.8 IU/L
  AST: 63.8 IU/L
  BUN: 9.2 mg/dL
  CRE: 0.4 mg/dL
  Ca: 10.4 mg/dL
  Cl: 102 meq/L
  DBIL: 0.076 mg/dL
  GLC: 190 mg/dL
  IP: 9.9 mg/dL
  K: 3.8 meq/L
  LDH: 202 IU/L
  Na: 140.6 meq/L
  PL: 152.4 mg/dL
  RALB: 3.3 g/dL
  TBIL: 0.1 mg/dL
  TG: 62 mg/dL
  TP: 5.5 g/dL
  gamma-GTP: 1 IU/L
[2]
  TERMINAL_BW: 210.4 g
  APTT: 20.3 s
  Bas: 0%
  Eos: 1%
  Fbg: 210 mg/dL
  Hb: 13.2 g/dL
  Ht: 38.7%
  Lym: 80.4%
  MCH: 20.8 pg
  MCV: 61.1 fL
  Mono: 2.6%
  Neu: 14.8%
  PT: 12.8 s
  Plat: 121.9 x10_4/uL
  RBC: 633.2 x10_4/ul
  Ret: 6.5%
  WBC: 95.7 x10_2/uL
  KIDNEY_L: 0.9 g
  KIDNEY_R: 0.9 g
  KIDNEY_TOTAL: 1.8 g
  LIVER: 9.1 g
  ALP: 803.4 IU/L
  ALT: 30.8 IU/L
  AST: 60.4 IU/L
  BUN: 9.4 mg/dL
  CRE: 0.4 mg/dL
  Ca: 10.6 mg/dL
  Cl: 102.4 meq/L
  DBIL: 0.084 mg/dL
  GLC: 190.6 mg/dL
  IP: 9.4 mg/dL
  K: 3.8 meq/L
  LDH: 175.2 IU/L
  Na: 140.8 meq/L
  PL: 142 mg/dL
  RALB: 3.4 g/dL
  TBIL: 0.1 mg/dL
  TG: 58.4 mg/dL
  TP: 5.6 g/dL
  gamma-GTP: 0.6 IU/L
[3]
  TERMINAL_BW: 211 g
  APTT: 18.6 s
  Bas: 0%
  Eos: 1%
  Fbg: 204.6 mg/dL
  Hb: 13.3 g/dL
  Ht: 38.7%
  Lym: 81.4%
  MCH: 21.3 pg
  MCV: 61.9 fL
  Mono: 2.4%
  Neu: 14.8%
  PT: 13.2 s
  Plat: 120.7 x10_4/uL
  RBC: 625.2 x10_4/ul
  Ret: 6.4%
  WBC: 91.7 x10_2/uL
  KIDNEY_L: 1 g
  KIDNEY_R: 1 g
  KIDNEY_TOTAL: 2 g
  LIVER: 8.6 g
  ALP: 828.4 IU/L
  ALT: 25.2 IU/L
  AST: 57.6 IU/L
  BUN: 9.6 mg/dL
  CRE: 0.3 mg/dL
  Ca: 10.3 mg/dL
  Cl: 101.6 meq/L
  DBIL: 0.064 mg/dL
  GLC: 197 mg/dL
  IP: 10.1 mg/dL
  K: 3.7 meq/L
  LDH: 176.2 IU/L
  Na: 140.2 meq/L
  PL: 133.2 mg/dL
  RALB: 3.4 g/dL
  TBIL: 0.1 mg/dL
  TG: 45.6 mg/dL
  TP: 5.4 g/dL
  gamma-GTP: 0.8 IU/L
[4]
  TERMINAL_BW: 226.1 g
  APTT: 20.2 s
  Bas: 0%
  Eos: 0.8%
  Fbg: 211.6 mg/dL
  Hb: 13.3 g/dL
  Ht: 39.4%
  Lym: 80%
  MCH: 21.1 pg
  MCV: 62.7 fL
  Mono: 2.8%
  Neu: 15.6%
  PT: 12.2 s
  Plat: 123.8 x10_4/uL
  RBC: 629 x10_4/ul
  Ret: 5.9%
  WBC: 88.7 x10_2/uL
  KIDNEY_L: 1 g
  KIDNEY_R: 1.1 g
  KIDNEY_TOTAL: 2.1 g
  LIVER: 11.4 g
  ALP: 820.6 IU/L
  ALT: 33.8 IU/L
  AST: 66.4 IU/L
  BUN: 18.4 mg/dL
  CRE: 0.4 mg/dL
  Ca: 10.6 mg/dL
  Cl: 103.2 meq/L
  DBIL: 0.1 mg/dL
  GLC: 199 mg/dL
  IP: 7.4 mg/dL
  K: 4.3 meq/L
  LDH: 215 IU/L
  Na: 140.2 meq/L
  PL: 147 mg/dL
  RALB: 3.3 g/dL
  TBIL: 0.2 mg/dL
  TP: 5.5 g/dL
  gamma-GTP: 1 IU/L
[5]
  TERMINAL_BW: 216.2 g
  APTT: 20.3 s
  Bas: 0%
  Eos: 1%
  Fbg: 202 mg/dL
  Hb: 13 g/dL
  Ht: 38.4%
  Lym: 80%
  MCH: 21.6 pg
  MCV: 63.7 fL
  Mono: 2.2%
  Neu: 15.8%
  PT: 12.5 s
  Plat: 116.4 x10_4/uL
  RBC: 602.6 x10_4/ul
  Ret: 7%
  WBC: 87.3 x10_2/uL
  KIDNEY_L: 1 g
  KIDNEY_R: 1 g
  KIDNEY_TOTAL: 2 g
  LIVER: 9.7 g
  ALP: 789.4 IU/L
  ALT: 34.4 IU/L
  AST: 65 IU/L
  BUN: 10.2 mg/dL
  CRE: 0.4 mg/dL
  Ca: 10.3 mg/dL
  Cl: 101.8 meq/L
  DBIL: 0.082 mg/dL
  GLC: 194.8 mg/dL
  IP: 10 mg/dL
  K: 3.8 meq/L
  LDH: 199.6 IU/L
  Na: 140.2 meq/L
  PL: 150.8 mg/dL
  RALB: 3.4 g/dL
  TBIL: 0.1 mg/dL
  TG: 63 mg/dL
  TP: 5.4 g/dL
  gamma-GTP: 1 IU/L
[6]
  TERMINAL_BW: 212.3 g
  APTT: 20 s
  Bas: 0%
  Eos: 1%
  Fbg: 205.6 mg/dL
  Hb: 13.2 g/dL
  Ht: 38.6%
  Lym: 80.6%
  MCH: 21.2 pg
  MCV: 61.9 fL
  Mono: 3%
  Neu: 14%
  PT: 12.8 s
  Plat: 123.1 x10_4/uL
  RBC: 623 x10_4/ul
  Ret: 6.2%
  WBC: 86.4 x10_2/uL
  KIDNEY_L: 1 g
  KIDNEY_R: 1 g
  KIDNEY_TOTAL: 2 g
  LIVER: 9.2 g
  ALP: 891 IU/L
  ALT: 35.4 IU/L
  AST: 68 IU/L
  BUN: 8.6 mg/dL
  CRE: 0.4 mg/dL
  Ca: 10.4 mg/dL
  Cl: 102.8 meq/L
  DBIL: 0.074 mg/dL
  GLC: 188.2 mg/dL
  IP: 9.9 mg/dL
  K: 3.7 meq/L
  LDH: 203.4 IU/L
  Na: 140.8 meq/L
  PL: 146 mg/dL
  RALB: 3.4 g/dL
  TBIL: 0.1 mg/dL
  TG: 41.8 mg/dL
  TP: 5.6 g/dL
  gamma-GTP: 0.6 IU/L
[7]
  TERMINAL_BW: 212.2 g
  APTT: 20 s
  Bas: 0%
  Eos: 1%
  Fbg: 221.6 mg/dL
  Hb: 13.2 g/dL
  Ht: 38.3%
  Lym: 80.6%
  MCH: 20.7 pg
  MCV: 60.2 fL
  Mono: 2.2%
  Neu: 15.2%
  PT: 13.3 s
  Plat: 123.1 x10_4/uL
  RBC: 637 x10_4/ul
  Ret: 5.7%
  WBC: 77.3 x10_2/uL
  KIDNEY_L: 1 g
  KIDNEY_R: 1 g
  KIDNEY_TOTAL: 1.9 g
  LIVER: 8.5 g
  ALP: 816 IU/L
  ALT: 26.6 IU/L
  AST: 60.4 IU/L
  BUN: 9.4 mg/dL
  CRE: 0.3 mg/dL
  Ca: 10.3 mg/dL
  Cl: 101 meq/L
  DBIL: 0.068 mg/dL
  GLC: 195.8 mg/dL
  IP: 9.9 mg/dL
  K: 3.6 meq/L
  LDH: 200.6 IU/L
  Na: 140.6 meq/L
  PL: 139 mg/dL
  RALB: 3.4 g/dL
  TBIL: 0.1 mg/dL
  TG: 47.2 mg/dL
  TP: 5.6 g/dL
  gamma-GTP: 0.6 IU/L
[8]
  TERMINAL_BW: 214.8 g
  APTT: 20.8 s
  Bas: 0%
  Eos: 0.8%
  Fbg: 200.6 mg/dL
  Hb: 13.7 g/dL
  Ht: 40.4%
  Lym: 86%
  MCH: 21.7 pg
  MCV: 63.9 fL
  Mono: 2%
  Neu: 10.6%
  PT: 13 s
  Plat: 127.9 x10_4/uL
  RBC: 632.8 x10_4/ul
  Ret: 6%
  WBC: 91 x10_2/uL
  KIDNEY_L: 1 g
  KIDNEY_R: 1 g
  KIDNEY_TOTAL: 2 g
  LIVER: 9.7 g
  ALP: 927.8 IU/L
  ALT: 34.6 IU/L
  AST: 65 IU/L
  BUN: 14.8 mg/dL
  CRE: 0.4 mg/dL
  Ca: 10.4 mg/dL
  Cl: 103.2 meq/L
  DBIL: 0.1 mg/dL
  GLC: 203.2 mg/dL
  IP: 7.9 mg/dL
  K: 3.6 meq/L
  LDH: 212.2 IU/L
  Na: 141 meq/L
  PL: 121.4 mg/dL
  RALB: 3.4 g/dL
  TBIL: 0.2 mg/dL
  TG: 88 mg/dL
  TP: 5.6 g/dL
  gamma-GTP: 0.8 IU/L

Source: ChEMBL document CHEMBL3885861, “Open TG-GATES”
